{
  "source": "patent US20140120232A1",
  "about": "“ACID TASTE/ACID SMELL-REDUCING AGENT” (T. HASEGAWA CO., LTD., priority 2011, published 2014)",
  "assay": "Sensory evaluation of Vermont drink containing the agent",
  "settings": "ten panels",
  "procedure": "Water was added to a mixture of 10 g of apple-cider vinegar (acetic acid: 4.8%), 3 g of honey, 7 g of fructose-glucose liquid sugar mixed with sugar, 0.02 g of citric acid, 0.002 g of trisodium citrate, and 0.1 g of a Vermont flavor (manufactured by T. Hasegawa Co., Ltd.) to give a total amount of 100 mL. To the resulting mixture was added (Z,Z)-4,7-tridecadienal as the acid taste and/or acid smell-reducing agent of the present invention in concentrations shown in the following Table 1 to give Vermont drinks containing the agent.\nSensory evaluation of each drink was carried out by ten panels. […] The piercing aroma characteristic to aldehydes is a characteristic aroma common to every aldehyde and refers to an irritant off-smell giving an image of deteriorated oils and fats, soap, metals, Houttuynia cordata, etc. The judgment of smell was performed by comparing the effects at different concentrations of the acid taste and/or acid smell-reducing agent, and a concentration giving the highest acid taste/acid smell quality was selected. […]",
  "data": [
    {"smiles": "CCCCC/C=C/C/C=C\\C=C\\C=O", "note": "[(E,Z,E)-2,4,7-tridecatrienal]", "values": [
      {"measurement": "A: number of panels, acid taste/acid smell extreme and cause irritation", "setting": "0.005 ppt", "result": 10},
      {"measurement": "B: number of panels, acid taste/acid smell slightly strong and slightly cause irritation", "setting": "0.005 ppt", "result": 0},
      {"measurement": "C: number of panels, acid taste/acid smell slightly unpleasant", "setting": "0.005 ppt", "result": 0},
      {"measurement": "Flavor judgment: number of panels who judged acid taste/acid smell quality the highest", "setting": "0.005 ppt", "result": 0},
      {"measurement": "N: number of panels, irritation of acid reduced to give a mild acid taste", "setting": "0.005 ppt", "result": 0},
      {"measurement": "X: number of panels, acid taste reduced but piercing odor characteristic to aldehydes unpleasant", "setting": "0.005 ppt", "result": 0},
      {"measurement": "A: number of panels, acid taste/acid smell extreme and cause irritation", "setting": "0.02 ppt", "result": 10},
      {"measurement": "B: number of panels, acid taste/acid smell slightly strong and slightly cause irritation", "setting": "0.02 ppt", "result": 0},
      {"measurement": "C: number of panels, acid taste/acid smell slightly unpleasant", "setting": "0.02 ppt", "result": 0},
      {"measurement": "Flavor judgment: number of panels who judged acid taste/acid smell quality the highest", "setting": "0.02 ppt", "result": 0},
      {"measurement": "N: number of panels, irritation of acid reduced to give a mild acid taste", "setting": "0.02 ppt", "result": 0},
      {"measurement": "X: number of panels, acid taste reduced but piercing odor characteristic to aldehydes unpleasant", "setting": "0.02 ppt", "result": 0},
      {"measurement": "A: number of panels, acid taste/acid smell extreme and cause irritation", "setting": "0.1 ppt", "result": 10},
      {"measurement": "B: number of panels, acid taste/acid smell slightly strong and slightly cause irritation", "setting": "0.1 ppt", "result": 0},
      {"measurement": "C: number of panels, acid taste/acid smell slightly unpleasant", "setting": "0.1 ppt", "result": 0},
      {"measurement": "Flavor judgment: number of panels who judged acid taste/acid smell quality the highest", "setting": "0.1 ppt", "result": 0},
      {"measurement": "N: number of panels, irritation of acid reduced to give a mild acid taste", "setting": "0.1 ppt", "result": 0},
      {"measurement": "X: number of panels, acid taste reduced but piercing odor characteristic to aldehydes unpleasant", "setting": "0.1 ppt", "result": 0},
      {"measurement": "A: number of panels, acid taste/acid smell extreme and cause irritation", "setting": "0.2 ppt", "result": 8},
      {"measurement": "B: number of panels, acid taste/acid smell slightly strong and slightly cause irritation", "setting": "0.2 ppt", "result": 2},
      {"measurement": "C: number of panels, acid taste/acid smell slightly unpleasant", "setting": "0.2 ppt", "result": 0},
      {"measurement": "Flavor judgment: number of panels who judged acid taste/acid smell quality the highest", "setting": "0.2 ppt", "result": 0},
      {"measurement": "N: number of panels, irritation of acid reduced to give a mild acid taste", "setting": "0.2 ppt", "result": 0},
      {"measurement": "X: number of panels, acid taste reduced but piercing odor characteristic to aldehydes unpleasant", "setting": "0.2 ppt", "result": 0},
      {"measurement": "A: number of panels, acid taste/acid smell extreme and cause irritation", "setting": "0.5 ppt", "result": 6},
      {"measurement": "B: number of panels, acid taste/acid smell slightly strong and slightly cause irritation", "setting": "0.5 ppt", "result": 2},
      {"measurement": "C: number of panels, acid taste/acid smell slightly unpleasant", "setting": "0.5 ppt", "result": 2},
      {"measurement": "Flavor judgment: number of panels who judged acid taste/acid smell quality the highest", "setting": "0.5 ppt", "result": 0},
      {"measurement": "N: number of panels, irritation of acid reduced to give a mild acid taste", "setting": "0.5 ppt", "result": 0},
      {"measurement": "X: number of panels, acid taste reduced but piercing odor characteristic to aldehydes unpleasant", "setting": "0.5 ppt", "result": 0},
      {"measurement": "A: number of panels, acid taste/acid smell extreme and cause irritation", "setting": "1 ppb", "result": 0},
      {"measurement": "B: number of panels, acid taste/acid smell slightly strong and slightly cause irritation", "setting": "1 ppb", "result": 0},
      {"measurement": "C: number of panels, acid taste/acid smell slightly unpleasant", "setting": "1 ppb", "result": 2},
      {"measurement": "Flavor judgment: number of panels who judged acid taste/acid smell quality the highest", "setting": "1 ppb", "result": 0},
      {"measurement": "N: number of panels, irritation of acid reduced to give a mild acid taste", "setting": "1 ppb", "result": 4},
      {"measurement": "X: number of panels, acid taste reduced but piercing odor characteristic to aldehydes unpleasant", "setting": "1 ppb", "result": 4},
      {"measurement": "A: number of panels, acid taste/acid smell extreme and cause irritation", "setting": "1 ppt", "result": 0},
      {"measurement": "B: number of panels, acid taste/acid smell slightly strong and slightly cause irritation", "setting": "1 ppt", "result": 6},
      {"measurement": "C: number of panels, acid taste/acid smell slightly unpleasant", "setting": "1 ppt", "result": 3},
      {"measurement": "Flavor judgment: number of panels who judged acid taste/acid smell quality the highest", "setting": "1 ppt", "result": 0},
      {"measurement": "N: number of panels, irritation of acid reduced to give a mild acid taste", "setting": "1 ppt", "result": 1},
      {"measurement": "X: number of panels, acid taste reduced but piercing odor characteristic to aldehydes unpleasant", "setting": "1 ppt", "result": 0},
      {"measurement": "A: number of panels, acid taste/acid smell extreme and cause irritation", "setting": "5 ppt", "result": 0},
      {"measurement": "B: number of panels, acid taste/acid smell slightly strong and slightly cause irritation", "setting": "5 ppt", "result": 1},
      {"measurement": "C: number of panels, acid taste/acid smell slightly unpleasant", "setting": "5 ppt", "result": 3},
      {"measurement": "Flavor judgment: number of panels who judged acid taste/acid smell quality the highest", "setting": "5 ppt", "result": 4},
      {"measurement": "N: number of panels, irritation of acid reduced to give a mild acid taste", "setting": "5 ppt", "result": 6},
      {"measurement": "X: number of panels, acid taste reduced but piercing odor characteristic to aldehydes unpleasant", "setting": "5 ppt", "result": 0},
      {"measurement": "A: number of panels, acid taste/acid smell extreme and cause irritation", "setting": "10 ppb", "result": 0},
      {"measurement": "B: number of panels, acid taste/acid smell slightly strong and slightly cause irritation", "setting": "10 ppb", "result": 0},
      {"measurement": "C: number of panels, acid taste/acid smell slightly unpleasant", "setting": "10 ppb", "result": 1},
      {"measurement": "Flavor judgment: number of panels who judged acid taste/acid smell quality the highest", "setting": "10 ppb", "result": 0},
      {"measurement": "N: number of panels, irritation of acid reduced to give a mild acid taste", "setting": "10 ppb", "result": 2},
      {"measurement": "X: number of panels, acid taste reduced but piercing odor characteristic to aldehydes unpleasant", "setting": "10 ppb", "result": 7},
      {"measurement": "A: number of panels, acid taste/acid smell extreme and cause irritation", "setting": "20 ppt", "result": 0},
      {"measurement": "B: number of panels, acid taste/acid smell slightly strong and slightly cause irritation", "setting": "20 ppt", "result": 0},
      {"measurement": "C: number of panels, acid taste/acid smell slightly unpleasant", "setting": "20 ppt", "result": 3},
      {"measurement": "Flavor judgment: number of panels who judged acid taste/acid smell quality the highest", "setting": "20 ppt", "result": 4},
      {"measurement": "N: number of panels, irritation of acid reduced to give a mild acid taste", "setting": "20 ppt", "result": 7},
      {"measurement": "X: number of panels, acid taste reduced but piercing odor characteristic to aldehydes unpleasant", "setting": "20 ppt", "result": 0},
      {"measurement": "A: number of panels, acid taste/acid smell extreme and cause irritation", "setting": "50 ppb", "result": 0},
      {"measurement": "B: number of panels, acid taste/acid smell slightly strong and slightly cause irritation", "setting": "50 ppb", "result": 0},
      {"measurement": "C: number of panels, acid taste/acid smell slightly unpleasant", "setting": "50 ppb", "result": 0},
      {"measurement": "Flavor judgment: number of panels who judged acid taste/acid smell quality the highest", "setting": "50 ppb", "result": 0},
      {"measurement": "N: number of panels, irritation of acid reduced to give a mild acid taste", "setting": "50 ppb", "result": 2},
      {"measurement": "X: number of panels, acid taste reduced but piercing odor characteristic to aldehydes unpleasant", "setting": "50 ppb", "result": 8},
      {"measurement": "A: number of panels, acid taste/acid smell extreme and cause irritation", "setting": "100 ppt", "result": 0},
      {"measurement": "B: number of panels, acid taste/acid smell slightly strong and slightly cause irritation", "setting": "100 ppt", "result": 0},
      {"measurement": "C: number of panels, acid taste/acid smell slightly unpleasant", "setting": "100 ppt", "result": 2},
      {"measurement": "Flavor judgment: number of panels who judged acid taste/acid smell quality the highest", "setting": "100 ppt", "result": 2},
      {"measurement": "N: number of panels, irritation of acid reduced to give a mild acid taste", "setting": "100 ppt", "result": 8},
      {"measurement": "X: number of panels, acid taste reduced but piercing odor characteristic to aldehydes unpleasant", "setting": "100 ppt", "result": 0},
      {"measurement": "A: number of panels, acid taste/acid smell extreme and cause irritation", "setting": "500 ppt", "result": 0},
      {"measurement": "B: number of panels, acid taste/acid smell slightly strong and slightly cause irritation", "setting": "500 ppt", "result": 0},
      {"measurement": "C: number of panels, acid taste/acid smell slightly unpleasant", "setting": "500 ppt", "result": 3},
      {"measurement": "Flavor judgment: number of panels who judged acid taste/acid smell quality the highest", "setting": "500 ppt", "result": 0},
      {"measurement": "N: number of panels, irritation of acid reduced to give a mild acid taste", "setting": "500 ppt", "result": 4},
      {"measurement": "X: number of panels, acid taste reduced but piercing odor characteristic to aldehydes unpleasant", "setting": "500 ppt", "result": 3}
    ]}
  ]
}
